{"source": "paper PMC12388506", "about": "“Preclinical Evaluation of 2-Aminobenzothiazole Derivatives: In Silico, In Vitro, and Preliminary In Vivo Studies as Diabetic Treatments and Their Complications” (Molecules, 2025);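 as to relative ALR2 inhibition: inhibition calculated from the rate of NADPH cofactor consumption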", "key": {"[1]": {"system": "STZ-HFD-induced T2D Wistar rats", "test": "24-element blood chemistry in STZ-HFD-induced T2D model", "assay_type": "in vivo, rat", "design": "GGT / TBA / AMY / TG / T-CHOL / GLU: unit not given here", "conditions": "for ALP / ALT / AST / CK: in U/L (unit assumed); for ALB / GLO / TP: in g/dL (unit assumed); for BUN / CRE / Ca / Mg / P / TBIL / UREA: in mg/dL (unit assumed); for tCO2: in mmol/L (unit assumed); for TP: mean ± SEM, n = 4", "description": "(§1) Treatments were administered daily as described above, adjusting the dose according to the weight of the individuals. Fasting glucose levels (6 h fast) were monitored every 7 days until the end of treatments at week 10 (Figure 14). Halfway through the last week of treatment, the OGTT was performed, administering a dose of 1.5 g/Kg of glucose orally and subsequently monitoring capillary blood glucose at 0, 15, 30, 60, 90, and 120 min [62]. In addition, a 24-element blood chemistry was measured in a Celercare V automated dry chemistry analyzer (Tianjin MNCHIP Technologies Co., Ltd., Tianjin, China) at the beginning and end of the model. For this purpose, the blood samples were obtained from the tail of the rat.\n(§2) At the end of the study, animals fasted for 12 h and were taken to a humane endpoint, where blood samples were obtained. These were kept at room temperature for 30 min and then centrifuged at 4000 RPM for 15 min at 4 °C. Finally, the serum was used to perform 24-element blood chemistry and quantify Trolox-equivalent TAC [86], TNF-α [87], and IL-6 levels using commercial kits from Merck (Darmstadt, Germany), Sigma-Aldrich (St. Louis, MO, USA), Cat. No. MAK334-1KT, RAB0479-1KT, and RAB0311-1KT, respectively. In addition, insulin was quantified using the Rat Ins1/Insulin ELISA Kit, from Sigma-Aldrich, No. Cat. RAB0904-1KT [89] to determine the HOMA-IR index. All kits were performed according to the manufacturer’s instructions without modifications."}, "[2]": {"system": "STZ-HFD-induced T2D Wistar rats", "test": "Ex vivo serum total antioxidant capacity (Trolox equivalent)", "assay_type": "in vivo, rat", "description": "as §2"}, "[3]": {"biological_target": "T1, ALR2 enzyme (Homo sapiens, UniProt P15121)", "T1 construct": "purchased ab273276", "test": "ALR2 activity assay kit (ab273276), inhibition", "assay_type": "biochemical", "description": "The obtained dose–response curve had concentrations of 10 μM, 5 μM, 500 nM, 50 nM, and 5 nM."}, "[4]": {"test": "ABTS assay", "description": "All synthesized compounds were evaluated at 30 μM, 50 μM, 70 μM, 90 μM, and 110 μM under two of the most widely used methods in research to directly measure the antioxidant and anti-radical intrinsic capacity, FRAP, and ABTS assay, which were validated by a dose–response curve of 5-ASA as a reference. In the same way, these tests were carried out in triplicate using an assay kit (from Pharmaceutical and Biotechnological Innovation-Services) according to the manufacturer’s instructions."}, "[5]": {"system": "IL-6", "test": "Ex vivo serum IL-6 quantification", "assay_type": "in vivo, rat", "description": "as §2"}, "[6]": {"system": "STZ-HFD-induced T2D Wistar rats", "test": "Subchronic evaluation in STZ-HFD-induced T2D model", "assay_type": "in vivo, rat", "design": "HbA1c: unit not given here", "description": "In vivo experiments were conducted in an acute and a subchronic model, where Wistar rats (180–220 g) were used. The study covered a total period of 10 weeks and was carried out under the Mexican Standard, and the “Guide for the Care and Use of Laboratory Animals” of the National Research Council and Health Institutes was followed.\nAt first, animals were housed in polypropylene cages under conditions of controlled temperature (20–25 °C), relative humidity (36–60%), and light/dark cycles, with water ad libitum. Before starting the experiment, they were given a one-week acclimatization period to adapt to their new habitat. Once finalized, animals were fed an HFD for 3 weeks to generate insulin resistance.\nAfter this period, the animals fasted for 12 h and then were administered intraperitoneally with a single dose of 35 mg/Kg of STZ dissolved in a buffer of 0.1 M citrate, pH 4.5 (prepared on the same day of administration). Once administered, the hypercaloric diet was maintained, and 10% sucrose solution was placed on demand for 2 days.\nOne week after administration, postprandial blood glucose levels were measured by venipuncture using a glucometer. Those animals that maintained a glucose level between 200 and 400 mg/dL were included in the study.\nas §1, §2"}, "[7]": {"conditions": "Table S11, After 5 weeks of treatment"}, "[8]": {"conditions": "serum, end of treatment, mean ± SEM, n = 4"}, "[9]": {"conditions": "after the induction of T2D, before treatment"}}}
{"compound": "COC(=O)[C@H](Cc1ccccc1)N/C(=N\\c1nc2ccccc2s1)SC", "note": "[8d, Methyl (E)-((benzo[d]thiazol-2-ylimino)(methylthio)methyl)-L-phenylalaninate]", "values": [{"measurement": "triglycerides (TG)", "setting": "[1]; After 5 weeks of treatment", "result": "significantly reducing TG"}, {"measurement": "A/G", "setting": "[1]; Final", "result": "1.28 ± 0.03"}, {"measurement": "AMY", "setting": "[1]; Final", "result": "436.50 ± 29.54"}, {"measurement": "AST/ALT", "setting": "[1]; Final", "result": "4.42 ± 0.79"}, {"measurement": "BUN/CRE", "setting": "[1]; Final", "result": "28.50 ± 6.00"}, {"measurement": "GGT", "setting": "[1]; Final", "result": "0.65 ± 0.18"}, {"measurement": "GLU", "setting": "[1]; Final", "result": "172.75 ± 50.56"}, {"measurement": "T-CHOL", "setting": "[1]; Final", "result": "90.00 ± 16.06"}, {"measurement": "TBA", "setting": "[1]; Final", "result": "54.33 ± 31.99"}, {"measurement": "TG", "setting": "[1]; Final", "result": "177.90 ± 82.61"}, {"measurement": "ALP", "setting": "[1]; Final", "result": "210.25 ± 109.57"}, {"measurement": "ALT", "setting": "[1]; Final", "result": "85.50 ± 27.46"}, {"measurement": "AST", "setting": "[1]; Final", "result": "319.75 ± 51.70"}, {"measurement": "CK", "setting": "[1]; Final", "result": "> 3000"}, {"measurement": "ALB", "setting": "[1]; Final", "result": "4.00 ± 0.16"}, {"measurement": "GLO", "setting": "[1]; Final", "result": "3.13 ± 0.13"}, {"measurement": "BUN", "setting": "[1]; Final", "result": "17.78 ± 4.29"}, {"measurement": "CRE", "setting": "[1]; Final", "result": "0.62 ± 0.03"}, {"measurement": "Ca", "setting": "[1]; Final", "result": "9.82 ± 0.48"}, {"measurement": "Mg", "setting": "[1]; Final", "result": "2.34 ± 0.09"}, {"measurement": "P", "setting": "[1]; Final", "result": "7.89 ± 0.55"}, {"measurement": "TBIL", "setting": "[1]; Final", "result": "0.25 ± 0.05"}, {"measurement": "UREA", "setting": "[1]; Final", "result": "38.10 ± 9.11"}, {"measurement": "tCO2", "setting": "[1]; Final", "result": "18.00 ± 0.82"}, {"measurement": "TP", "setting": "[1]; Final", "result": "7.13 ± 0.28"}, {"measurement": "A/G", "setting": "[1]; Initial", "result": "1.3 ± 0.11"}, {"measurement": "AMY", "setting": "[1]; Initial", "result": "361.25 ± 6.54"}, {"measurement": "AST/ALT", "setting": "[1]; Initial", "result": "2.16 ± 0.40"}, {"measurement": "BUN/CRE", "setting": "[1]; Initial", "result": "21.50 ± 2.60"}, {"measurement": "GGT", "setting": "[1]; Initial", "result": "1.33 ± 0.38"}, {"measurement": "GLU", "setting": "[1]; Initial", "result": "188.50 ± 31.74"}, {"measurement": "T-CHOL", "setting": "[1]; Initial", "result": "105.5 ± 19.94"}, {"measurement": "TBA", "setting": "[1]; Initial", "result": "79.85 ± 13.64"}, {"measurement": "TG", "setting": "[1]; Initial", "result": "291.35 ± 160.5"}, {"measurement": "ALP", "setting": "[1]; Initial", "result": "287.75 ± 31.54"}, {"measurement": "ALT", "setting": "[1]; Initial", "result": "68.75 ± 11.67"}, {"measurement": "AST", "setting": "[1]; Initial", "result": "135.75 ± 8.14"}, {"measurement": "CK", "setting": "[1]; Initial", "result": "641.75 ± 63.37"}, {"measurement": "ALB", "setting": "[1]; Initial", "result": "3.78 ± 0.08"}, {"measurement": "GLO", "setting": "[1]; Initial", "result": "2.95 ± 0.22"}, {"measurement": "BUN", "setting": "[1]; Initial", "result": "11.94 ± 1.46"}, {"measurement": "CRE", "setting": "[1]; Initial", "result": "0.56 ± 0.00"}, {"measurement": "Ca", "setting": "[1]; Initial", "result": "9.45 ± 0.16"}, {"measurement": "Mg", "setting": "[1]; Initial", "result": "2.18 ± 0.07"}, {"measurement": "P", "setting": "[1]; Initial", "result": "6.83 ± 0.64"}, {"measurement": "TBIL", "setting": "[1]; Initial", "result": "0.31 ± 0.05"}, {"measurement": "UREA", "setting": "[1]; Initial", "result": "25.65 ± 3.10"}, {"measurement": "tCO2", "setting": "[1]; Initial", "result": "15.25 ± 0.63"}, {"measurement": "TP", "setting": "[1]; Initial", "result": "6.73 ± 0.20"}, {"measurement": "hepatotoxicity", "setting": "[1]; subchronic treatment", "result": "without inducing hepatotoxicity"}, {"measurement": "effect on total antioxidant capacity (TAC)", "setting": "[2]", "result": "did not improve TAC"}, {"measurement": "TAC Equivalent to Trolox", "setting": "[2]; [7]", "result": "79.26 ± 17.28", "unit": "µM"}, {"measurement": "TAC Equivalent to Trolox", "setting": "[2]; [8]", "result": "79.26 ± 17.28", "unit": "µM"}, {"measurement": "concentrations at which ALR2 was inhibited", "setting": "[3]", "result": "below 10 µM"}, {"measurement": "concentration dependence of ALR2 inhibition (IC50 not calculable)", "setting": "[3]; 10 μM to 5 nM", "result": "did not show a concentration-dependent response"}, {"measurement": "relative ALR2 inhibition", "setting": "[3]; Inhibitor concentration 5 nm", "result": 93.590, "unit": "%"}, {"measurement": "relative ALR2 inhibition", "setting": "[3]; Inhibitor concentration 50 nm", "result": 91.644, "unit": "%"}, {"measurement": "relative ALR2 inhibition", "setting": "[3]; Inhibitor concentration 500 nm", "result": 86.494, "unit": "%"}, {"measurement": "relative ALR2 inhibition", "setting": "[3]; Inhibitor concentration 5000 nm", "result": 80.389, "unit": "%"}, {"measurement": "relative ALR2 inhibition", "setting": "[3]; Inhibitor concentration 10000 nm", "result": 89.966, "unit": "%"}, {"measurement": "Percentage reduction of radical cation ABTS", "setting": "[4]; 30 µM", "result": -4.0, "unit": "%"}, {"measurement": "Percentage reduction of radical cation ABTS", "setting": "[4]; 50 µM", "result": -3.0, "unit": "%"}, {"measurement": "Percentage reduction of radical cation ABTS", "setting": "[4]; 70 µM", "result": -4.2, "unit": "%"}, {"measurement": "Percentage reduction of radical cation ABTS", "setting": "[4]; 90 µM", "result": -3.6, "unit": "%"}, {"measurement": "Percentage reduction of radical cation ABTS", "setting": "[4]; 110 µM", "result": -2.5, "unit": "%"}, {"measurement": "effect on IL-6 and TNF-α levels", "setting": "[5]; IL-6 and TNF-α together", "result": "highest levels of both cytokines"}, {"measurement": "IL-6", "setting": "[5]; [7]", "result": "887.53 ± 243.91", "unit": "pg/mL"}, {"measurement": "IL-6", "setting": "[5]; [8]", "result": "887.53 ± 243.91", "unit": "pg/mL"}, {"measurement": "HOMA-IR", "setting": "[6]; After 5 weeks of treatment", "result": "1.66 ± 0.611"}, {"measurement": "R-QUICKI", "setting": "[6]; After 5 weeks of treatment", "result": "0.376 ± 0.031"}, {"measurement": "HbA1c", "setting": "[6]; After 5 weeks of treatment, mean ± SEM, n = 4", "result": "9.267 ± 0.802"}, {"measurement": "HOMA-IR", "setting": "[6]; Final (end of 5 weeks treatment), PGZ 30 mg/Kg, 8d 32 mg/Kg, mean ± SEM, n = 4", "result": "1.66 ± 0.61"}, {"measurement": "HOMA-IR", "setting": "[6]; Initial (beginning of treatment), PGZ 30 mg/Kg, 8d 32 mg/Kg, mean ± SEM, n = 4", "result": "4.22 ± 1.58"}, {"measurement": "HOMA-IR", "setting": "[6]; [9]", "result": "4.22 ± 1.577"}, {"measurement": "R-QUICKI", "setting": "[6]; [9]", "result": "0.318 ± 0.013"}, {"measurement": "HbA1c", "setting": "[6]; after the induction of T2D, before treatment, mean ± SEM, n = 4", "result": "8.633 ± 0.536"}, {"measurement": "adipogenic effect at necropsy", "setting": "[6]; after treatment", "result": "clear adipogenic effect"}, {"measurement": "polydipsia (water consumption)", "setting": "[6]; daily oral treatment", "result": "decreasing the polydipsia after the first week of treatment"}, {"measurement": "fasting blood glucose, subchronic", "setting": "[6]; daily oral, 5 weeks", "result": "lower blood glucose levels close to the normoglycemia of the healthy group"}, {"measurement": "redistribution of adipose tissue from visceral to subcutaneous fat", "setting": "[6]; necropsy", "result": "barely perceptible"}]}
